Assays:
[1] = xn = mol fraction of the nth substance listed; details: 101 kPa, Liquid
[2] = 101 kPa, Liquid

CCCCn1cc[n+](C)c1.F[P-](F)(F)(F)(F)F [1-butyl-3-methylimidazolium hexafluorophosphate] + CO
[1]
Details	mass density, 298.15 K [kg/m3]	mass density, 303.15 K [kg/m3]	mass density, 308.15 K [kg/m3]	mass density, 313.15 K [kg/m3]	mass density, 318.15 K [kg/m3]	speed of sound, 298.15 K [m/s]	speed of sound, 303.15 K [m/s]	speed of sound, 308.15 K [m/s]	speed of sound, 313.15 K [m/s]	speed of sound, 318.15 K [m/s]
x1 = 0.0223	852.499	847.778	843.039	838.277	833.49	1132.1	1116.9	1101.8	1086.7	1071.7
x1 = 0.0484	914.856	910.156	905.442	900.703	895.952	1155.5	1141.5	1127.5	1113.6	1099.7
x1 = 0.0786	972.943	968.272	963.583	958.877	954.071	1180.7	1167.7	1154.6	1141.6	1128.6
x1 = 0.1869	1111.37	1106.76	1102.15	1097.53	1092.91	1261.6	1249.8	1238	1226.1	1214.3
x1 = 0.2156	1136.5	1131.89	1127.3	1122.7	1118.12	1280.7	1268.9	1257.2	1245.5	1233.8
x1 = 0.3573	1223.91	1219.39	1214.87	1210.36	1205.87	1340.7	1329.1	1317.5	1306	1294.5
x1 = 0.4572	1263.6	1259.04	1254.81	1250.5	1246.03	1366.7	1355.1	1343.6	1332.1	1320.7
x1 = 0.6222	1308.96	1304.59	1300.24	1295.96	1291.78	1400.5	1388.9	1377.4	1365.9	1354.7
x1 = 0.7736	1337.5	1333.24	1328.99	1324.76	1320.54	1421.1	1409.5	1398	1386.6	1375.3
x1 = 0.9208	1357.7	1353.55	1349.39	1345.23	1341.08	1435.2	1423.5	1411.9	1400.6	1389.4
x1 = 1	1366.66	1362.4	1358.3	1354.19	1350.08	1442.4	1430.6	1419	1407.5	1396.3

CC#N [acetonitrile]
[2]
Details	mass density [kg/m3]	speed of sound [m/s]
298.15 K	776.533	1278.6
303.15 K	771.116	1258.7
308.15 K	765.66	1238.7
313.15 K	760.162	1218.5
318.15 K	754.462	1198.3

CO [methanol] + CCCCn1cc[n+](C)c1.F[P-](F)(F)(F)(F)F
[1], x2 = 0
Details	mass density [kg/m3]	speed of sound [m/s]
298.15 K	786.531	1102.7
303.15 K	781.808	1086.4
308.15 K	777.066	1070.1
313.15 K	772.283	1054
318.15 K	767.474	1037.9

CCCCn1cc[n+](C)c1.F[P-](F)(F)(F)(F)F [1-butyl-3-methylimidazolium hexafluorophosphate]
[2]
Details	mass density [kg/m3]	speed of sound [m/s]
298.15 K	1366.66	1442.4
303.15 K	1362.4	1430.6
308.15 K	1358.3	1419
313.15 K	1354.19	1407.5
318.15 K	1350.08	1396.3

CC#N [acetonitrile] + CCCCn1cc[n+](C)c1.F[P-](F)(F)(F)(F)F
[1], x2 = 0
Details	mass density [kg/m3]	speed of sound [m/s]
298.15 K	776.533	1278.6
303.15 K	771.116	1258.7
308.15 K	765.66	1238.7
313.15 K	760.162	1218.5
318.15 K	754.462	1198.3

CO [methanol]
[2]
Details	mass density [kg/m3]	speed of sound [m/s]
298.15 K	786.531	1102.7
303.15 K	781.808	1086.4
308.15 K	777.066	1070.1
313.15 K	772.283	1054
318.15 K	767.474	1037.9

CCCCn1cc[n+](C)c1.F[P-](F)(F)(F)(F)F [1-butyl-3-methylimidazolium hexafluorophosphate] + CC#N
[1]
Details	mass density, 298.15 K [kg/m3]	mass density, 303.15 K [kg/m3]	mass density, 308.15 K [kg/m3]	mass density, 313.15 K [kg/m3]	mass density, 318.15 K [kg/m3]	speed of sound, 298.15 K [m/s]	speed of sound, 303.15 K [m/s]	speed of sound, 308.15 K [m/s]	speed of sound, 313.15 K [m/s]	speed of sound, 318.15 K [m/s]
x1 = 0.0453	878.471	873.235	866.821	862.713	857.428	1293.5	1275.1	1256.7	1238.4	1220.2
x1 = 0.0935	959.103	954.02	948.924	943.817	938.706	1308.9	1291.8	1274.6	1257.5	1240.5
x1 = 0.2007	1085.08	1080.25	1075.41	1070.58	1065.76	1341.9	1326.2	1310.9	1295.8	1280.9
x1 = 0.2966	1159.89	1155.23	1150.56	1145.9	1141.24	1366.5	1352.2	1338.1	1324	1310
x1 = 0.4241	1228.44	1223.91	1219.4	1214.89	1210.4	1389	1375.6	1362.3	1349.2	1336.3
x1 = 0.514	1263.52	1258.71	1254.64	1250.22	1245.81	1402	1389.2	1376.5	1363.8	1351.2
x1 = 0.6186	1294.95	1290.95	1286.59	1282.25	1277.92	1413.5	1401	1388.7	1376.5	1364.4
x1 = 0.7285	1320.82	1316.59	1312.32	1308.06	1303.82	1423.9	1411.8	1399.9	1388	1376.2
x1 = 0.7886	1332.55	1328.3	1324.05	1319.81	1315.59	1427.9	1415.9	1404.1	1392.4	1380.8
x1 = 0.8925	1350.78	1346.33	1342.2	1338.05	1333.89	1436.5	1424.5	1412.6	1401	1389.5
x1 = 1	1366.66	1362.4	1358.3	1354.19	1350.08	1442.4	1430.6	1419	1407.5	1396.3

Source: the NIST ThermoML archive (doi:10.1021/je050165t)
